One may read the ED50 as the dose that gives a 50% effect, or the effect in half of the subjects. A word on the Ki: it is the dissociation constant of the complex between target and ligand, obtained from inhibition or displacement. As usually defined, the IC50 is the midpoint of a concentration-inhibition curve. Broadly, the bioavailability is dose-corrected exposure relative to a reference, in per cent. Usually inhibition stands for the drop in the measured response relative to a control, in per cent. Low readings indicate a weak effect, high ones a strong effect.

SMILES strings stand for the structures.

A short description of data set [1]: In vivo antagonist activity at Histamine H3 receptor in Wistar rat assessed as reduction in imetit-induced water intake pretreated with compound for 30 mins followed by imetit administration and measured after 30 mins by dipsogenia test. Format: functional. The note with it: 1 h, time 60 min.
The target of data set [2] is T1, Histamine H3 receptor (Homo sapiens, UniProt Q9Y5N1).
T1 sequence (Q9Y5N1 whole entry): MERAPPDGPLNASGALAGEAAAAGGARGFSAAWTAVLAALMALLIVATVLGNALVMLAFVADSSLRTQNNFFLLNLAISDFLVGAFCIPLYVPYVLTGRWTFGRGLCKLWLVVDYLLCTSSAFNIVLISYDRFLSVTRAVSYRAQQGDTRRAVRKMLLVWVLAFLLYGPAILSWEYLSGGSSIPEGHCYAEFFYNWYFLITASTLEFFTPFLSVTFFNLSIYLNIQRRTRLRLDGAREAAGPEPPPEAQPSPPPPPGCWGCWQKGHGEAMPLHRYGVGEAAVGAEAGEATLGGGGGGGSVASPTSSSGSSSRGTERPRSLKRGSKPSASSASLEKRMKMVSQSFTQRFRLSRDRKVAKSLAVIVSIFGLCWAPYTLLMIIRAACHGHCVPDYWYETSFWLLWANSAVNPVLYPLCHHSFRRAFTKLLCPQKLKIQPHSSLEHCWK
Description: Displacement of N-alpha-[methyl-3H]methylhistamine dihydrochloride from human Histamine H3 receptor expressed in CHO-K1 cell membrane assessed as inhibition constant incubated for 30 mins by liquid scintillation analyzer
Data set [3] deals with Histamine H3 receptor (Rattus norvegicus, UniProt Q9QYN8).
Chain of Histamine H3 receptor (Rattus norvegicus, UniProt Q9QYN8) (Q9QYN8 whole entry): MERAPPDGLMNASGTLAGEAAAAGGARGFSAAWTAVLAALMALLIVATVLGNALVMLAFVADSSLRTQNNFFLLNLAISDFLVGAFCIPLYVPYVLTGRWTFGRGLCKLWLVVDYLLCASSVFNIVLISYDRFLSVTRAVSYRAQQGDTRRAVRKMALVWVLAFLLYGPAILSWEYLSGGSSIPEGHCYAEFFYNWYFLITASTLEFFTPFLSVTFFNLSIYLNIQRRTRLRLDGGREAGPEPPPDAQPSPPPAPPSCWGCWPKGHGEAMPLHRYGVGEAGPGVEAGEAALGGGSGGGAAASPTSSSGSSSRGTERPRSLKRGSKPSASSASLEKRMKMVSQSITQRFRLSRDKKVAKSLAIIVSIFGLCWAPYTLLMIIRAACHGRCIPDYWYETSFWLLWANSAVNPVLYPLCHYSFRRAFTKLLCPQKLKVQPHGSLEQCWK
Description: Displacement of N-alpha-[methyl-3H]-methylhistamine dihydrochloride from Sprague-Dawley rat cerebral cortex membrane Histamine H3 receptor assessed as inhibition constant incubated for 30 mins by scintillation counter
Data set [4] can be described thus: Displacement of [3H]quinuclidinyl benzilate from Wistar rat cerebral cortex membrane muscarinic AChR assessed as inhibition constant by liquid scintillation counter. Background: Loss of bound radioactivity is the signal in a displacement assay; it reports binding, not function.
Data set [5] addresses Voltage-gated inwardly rectifying potassium channel KCNH2 (Homo sapiens, UniProt Q12809). Briefly: Inhibition of human ERG expressed in CHO cells incubated for 7 to 10 mins by automated whole-cell patch clamp recordings. In kind it is toxicity, cell-based. A general note: In patch-clamp work, channel activity is measured electrically.
Data set [6] is filed under the species Rattus norvegicus. The data set is described as follows: Displacement of [3H]quinuclidinyl benzilate from Wistar rat cerebral cortex membrane muscarinic AChR at 1 uM by liquid scintillation counter relative to control. In kind it is cell membranes.
Data set [7] has as its target T1, Histamine H3 receptor. The data set is described as follows: Antagonist activity at human Histamine H3 receptor.
The next data set concerns Mus musculus. Briefly: Cognitive enhancing effect in scopolamine-induced NMRI mouse model assessed as reversal of exploration time by measuring minimum effective dose preadministered orally for 30 mins followed by scopolamine administration by place recognition test. Format: functional. The note with it: 0.5 h, route po, read-out: MED.
Data set [8] can be described thus: Ratio of drug concentration in Hannover Wistar rat brain to plasma administered orally for 2 days and measured 1 hrs post last dose by HPLC-MS/MS analysis. Format: ADME. The settings on record: route po, read-out: BPR.
The nature of data set [9]: Bioavailability in Wistar rat at 10 mg/kg, po or 3 mg/kg, iv measured after 24 hrs by HPLC-MS/MS analysis. The note with it: in vivo. In kind it is ADME, organism-based.
Data set [10] concerns Rattus norvegicus. Briefly: Cognitive enhancing effect in Hannover Wistar rat model of delay-induced natural forgetting assessed as reversal of exploration time by measuring minimal effective dose orally administered for 30 mins by novel object recognition test. The note with it: 0.5 h, route po, read-out: MED. Format: functional.
The target of data set [11] is T2, hERG (KCNH2) (Homo sapiens, UniProt Q12809). Briefly: Inhibition of human ERG expressed in CHO cells at 1 uM incubated for 7 to 10 mins by automated whole-cell patch clamp recordings relative to control. The note with it: CHO cells expressing human ERG.
T2 sequence (Q12809 whole entry): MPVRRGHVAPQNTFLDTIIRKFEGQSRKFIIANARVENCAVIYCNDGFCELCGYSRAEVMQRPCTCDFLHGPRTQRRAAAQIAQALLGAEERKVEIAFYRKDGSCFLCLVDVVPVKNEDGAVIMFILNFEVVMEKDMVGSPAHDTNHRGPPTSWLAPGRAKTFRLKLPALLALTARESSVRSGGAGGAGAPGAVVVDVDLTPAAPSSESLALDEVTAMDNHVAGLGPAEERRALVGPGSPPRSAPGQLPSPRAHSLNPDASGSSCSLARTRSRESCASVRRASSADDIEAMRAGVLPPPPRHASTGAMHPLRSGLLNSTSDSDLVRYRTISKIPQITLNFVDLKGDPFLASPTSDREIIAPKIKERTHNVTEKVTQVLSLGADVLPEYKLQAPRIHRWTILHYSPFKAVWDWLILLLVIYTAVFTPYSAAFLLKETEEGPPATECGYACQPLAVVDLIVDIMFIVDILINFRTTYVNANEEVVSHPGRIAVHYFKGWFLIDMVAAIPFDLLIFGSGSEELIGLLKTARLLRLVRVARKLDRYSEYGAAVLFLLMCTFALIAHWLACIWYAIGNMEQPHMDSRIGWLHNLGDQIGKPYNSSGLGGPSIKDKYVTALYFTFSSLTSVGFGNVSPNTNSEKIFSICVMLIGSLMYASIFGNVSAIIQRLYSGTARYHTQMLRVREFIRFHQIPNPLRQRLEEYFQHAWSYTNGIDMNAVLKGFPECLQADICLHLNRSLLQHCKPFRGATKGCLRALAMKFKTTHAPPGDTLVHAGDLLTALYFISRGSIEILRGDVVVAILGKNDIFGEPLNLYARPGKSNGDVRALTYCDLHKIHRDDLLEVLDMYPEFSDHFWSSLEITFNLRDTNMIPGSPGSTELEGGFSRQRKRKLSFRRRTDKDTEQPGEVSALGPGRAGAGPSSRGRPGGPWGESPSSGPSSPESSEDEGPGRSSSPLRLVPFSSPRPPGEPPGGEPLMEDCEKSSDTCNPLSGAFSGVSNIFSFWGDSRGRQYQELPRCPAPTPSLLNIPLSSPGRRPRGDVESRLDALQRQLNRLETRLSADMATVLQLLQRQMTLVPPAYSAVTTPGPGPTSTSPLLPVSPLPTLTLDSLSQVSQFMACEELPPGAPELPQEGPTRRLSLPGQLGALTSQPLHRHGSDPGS
Data set [12] deals with T2, hERG (KCNH2). Briefly: Inhibition of human ERG expressed in CHO cells at 3 uM incubated for 7 to 10 mins by automated whole-cell patch clamp recordings relative to control. The note with it: CHO cells expressing human ERG.

Chain of Voltage-gated inwardly rectifying potassium channel KCNH2 (Q12809 whole entry): as above

In the case of `C[C@@H]1CCCN1CCCOc1ccc2c(c1)CC[C@H]1[C@@H]3[C@H](C#N)CC(=O)N[C@@]3(C)CC[C@H]21`, the ED50 in data set [1] came out at 3.6 mg/kg. Also, the Ki on Histamine H3 receptor [2] is 0.0086 µM; at Histamine H3 receptor [3] it was 0.0205 µM; in data set [4], 2.4 µM. Also, the IC50 in [5] came out at 24 µM.

In the case of `C[C@@H]1CCCN1CCCOc1ccc2c(c1)CC[C@@H]1[C@@H]2CC[C@@]2(C)[C@H]1CCCN2C(=O)C(C)(C)C`, the results for the Ki (on Histamine H3 receptor [2]; at Histamine H3 receptor [3]; in data set [4]) were 0.0078 µM, 0.0552 µM and 0.816 µM, respectively.

With `CCC(=O)N1CCC[C@H]2[C@@H]3CCc4cc(OCCCN5CCC[C@H]5C)ccc4[C@H]3CC[C@@]21C`, the Ki worked out at 0.008 µM at Histamine H3 receptor [2], 0.0373 µM on Histamine H3 receptor [3] and 1.7 µM in data set [4]. Further, in [5], the IC50 is over 10 µM.

For the compound `C[C@]12CC[C@@H]3c4ccc(OCCCN5CCCC5)cc4CC[C@H]3[C@@H]1CCCN2CCO`, the Ki on Histamine H3 receptor [2] turned out to be 0.0034 µM; on Histamine H3 receptor [3] it was 0.0105 µM.

With `CN1CCC[C@H]2[C@@H]3CCc4cc(OCCCN5CCCC5)ccc4[C@H]3CC[C@@]21C`, the Activity in the data set listed under Rattus norvegicus [6] came to 69%. Moreover, the values for the Ki at Histamine H3 receptor [2] and at Histamine H3 receptor [3] were 0.0009 µM and 0.0051 µM, respectively.

As for `C[C@@H]1CCCN1CCCOc1ccc2c(c1)CC[C@@H]1[C@@H]2CC[C@]2(C)NC(=O)CC[C@H]12`, in data set [5], half-maximal inhibition (IC50) was put at 22 µM. This counts as double-digit micromolar.

Regarding `C[C@@H]1CCCN1CCCOc1ccc2c(c1)CC[C@H]1[C@H]3[C@@H]4C[C@@H]4C(=O)N[C@@]3(C)CC[C@H]21`, the ED50 in data set [1] came to 0.33 mg/kg. Further, the Ki on Histamine H3 receptor [2] stood at 0.0024 µM; on Histamine H3 receptor [3] it was 0.0099 µM; in data set [4], 3.6 µM. Further, the IC50 in data set [5] was found to be 5 µM.

Take `C[C@@H]1CCCN1CCCOc1ccc2c(c1)CC[C@H]1C3=CCC(=O)N(C)[C@@]3(C)CC[C@H]21`: the ED50 in data set [1] came out at 0.22 mg/kg. The Ki at Histamine H3 receptor [2] was found to be 0.0011 µM; on Histamine H3 receptor [3], 0.0057 µM; in [4] it was 1.5 µM. The compound further had an IC50 in [5] of 8.6 µM.

`NC(=O)c1ccc([C@@H]2C[C@H]2C(=O)N2CCN(C3CCC3)CC2)cc1` showed a Ki on Histamine H3 receptor [7] of 0.000501 µM.

Regarding `C[C@@H]1CCCN1CCCOc1ccc2c(c1)CC[C@@H]1[C@@H]2CC[C@@]2(C)[C@H]1CCC(=O)N2C`, the minimal effective dose in the data set on Mus musculus is 0.1 mg/kg; in the data set on Rattus norvegicus [10] it was 0.3 mg/kg. Further, the Kp at 49 h in data set [8] was 1.4. Besides, in data set [1], the ED50 turned out to be 0.4 mg/kg. The compound also returned an IC50 in [5] of 9.9 µM. In [9], this compound came in with a bioavailability of 63.7%.

Turning to `C[C@@H]1CCCN1CCCOc1ccc2c(c1)CC[C@H]1[C@@H]3[C@@H]4C[C@@H]4C(=O)N[C@@]3(C)CC[C@H]21`, the ED50 in data set [1] is 1.5 mg/kg. Moreover, the results for the Ki on Histamine H3 receptor [2] and at Histamine H3 receptor [3] were 0.0049 µM and 0.0094 µM, respectively. Besides, the midpoint of inhibition in data set [5], the IC50, lay at 11.7 µM.

For the compound `C[C@@H]1CC(=O)N[C@@]2(C)CC[C@@H]3c4ccc(OCCCN5CCC[C@H]5C)cc4CC[C@H]3[C@H]12`, the ED50 in [1] was 1.3 mg/kg. Further, the Ki at Histamine H3 receptor [2] was found to be 0.0022 µM; on Histamine H3 receptor [3] it was 0.0248 µM; in data set [4], 2.5 µM. In data set [5], this compound showed an IC50 of 11 µM.

Regarding `C[C@@H]1CCCN1CCCOc1ccc2c(c1)CC[C@@H]1[C@@H]2CC[C@@]2(C)[C@H]1CCCN2C(=O)c1ccccc1`, at Histamine H3 receptor [2], the affinity corresponds to a Ki of 0.0116 µM.

As to `C[C@@H]1CCCN1CCCOc1ccc2c(c1)CC[C@H]1[C@@H]3[C@H](C#N)CC(=O)N(C)[C@@]3(C)CC[C@H]21`, the ED50 in [1] is 0.78 mg/kg. Moreover, the Ki came to 0.002 µM on Histamine H3 receptor [2] and 0.0072 µM on Histamine H3 receptor [3]. The same compound returned an IC50 in data set [5] of 10.4 µM.

As for `C[C@@H]1CCCN1CCCOc1ccc2c(c1)CC[C@@H]1[C@@H]2CC[C@]2(C)NC(=O)CC[C@@H]12`, half-maximal inhibition in data set [5] (IC50) required 3.7 µM.

The compound `C[C@]12CC[C@@H]3c4ccc(OCCCN5CCCC5)cc4CC[C@H]3[C@@H]1CCCN2C=O` registered an Activity in the data set filed under Rattus norvegicus [6] of 13%. Besides, the figures for the Ki at Histamine H3 receptor [2] and on Histamine H3 receptor [3] were 0.0018 µM and 0.0218 µM, respectively. In [5], this compound had an IC50 of 6 µM.

As to `C[C@@H]1CCCN1CCCOc1ccc2c(c1)CC[C@@H]1[C@@H]2CC[C@@]2(C)[C@@H]1CCC(=O)N2C`, the ED50 in data set [1] worked out at 0.23 mg/kg. The IC50 in data set [5] is 9.6 µM.

`C[C@@H]1CCCN1CCCOc1ccc2c(c1)CC[C@@H]1[C@@H]2CC[C@@]2(C)[C@H]1CCCN2C(=O)C1CCOC1` (some centres not stated) yielded a Ki at Histamine H3 receptor [3] of 0.096 µM.

As to `C[C@]12CC[C@@H]3c4ccc(OCCCN5CCCC5)cc4CC[C@H]3[C@@H]1CCCN2`, in the data set filed under Rattus norvegicus [6], the Activity came out at 36%. For the same compound, the Ki amounted to 0.0015 µM on Histamine H3 receptor [2] and 0.0302 µM at Histamine H3 receptor [3].

`CC(=O)N1CCC[C@H]2[C@@H]3CCc4cc(OCCCN5CCC[C@H]5C)ccc4[C@H]3CC[C@@]21C`: the Ki at Histamine H3 receptor [2] was determined as 0.0069 µM; at Histamine H3 receptor [3], 0.0159 µM. Also, the IC50 in [5] stood at 10 µM.

Take `CN1CCC[C@H]2[C@@H]3CC[C@H]4C[C@@H](OC(=O)CCN5CCCC5)CC[C@]4(C)[C@H]3CC[C@@]21C`: the Activity in the data set listed under Rattus norvegicus [6] came to 44%. Further, the affinity on Histamine H3 receptor [2], expressed as Ki, was 0.0106 µM.

Take `C[C@@H]1CCCN1CCCOc1ccc2c(c1)CC[C@@H]1[C@@H]2CC[C@@]2(C)NC(=O)CC[C@@H]12`: the IC50 in [5] was over 30 µM.

As to `C[C@@H]1CC(=O)N(C)[C@@]2(C)CC[C@@H]3c4ccc(OCCCN5CCC[C@H]5C)cc4CC[C@H]3[C@H]12`, in data set [1], the ED50 was 0.48 mg/kg. Moreover, the results for the Ki on Histamine H3 receptor [2] and at Histamine H3 receptor [3] were 0.0024 µM and 0.0022 µM, respectively. In addition, the IC50 in [5] came to 8.8 µM.

For the compound `C[C@@H]1C[C@@H]2[C@@H]3CCc4cc(OCCCN5CCC[C@H]5C)ccc4[C@H]3CC[C@]2(C)N(C)C1=O`, the results for the Ki at Histamine H3 receptor [2] and at Histamine H3 receptor [3] were 0.0015 µM and 0.0038 µM, respectively. Besides, half-maximal inhibition in data set [5] (IC50) required 2.7 µM.

For `CC(=O)N[C@]12CCC(=O)N[C@@]1(C)CC[C@@H]1c3ccc(OCCCN4CCC[C@H]4C)cc3CC[C@H]12`, the Ki on Histamine H3 receptor [2] was found to be 0.0151 µM; on Histamine H3 receptor [3] it was 0.0145 µM. 1 µM produced 3% inhibition on hERG (KCNH2) [11]. The compound further came in with an inhibition at 3 µM at hERG (KCNH2) [12] of 8%.

In the case of `C[C@@H]1CCCN1CCCOc1ccc2c(c1)CC[C@H]1[C@@H]3[C@@H]4C[C@@H]4C(=O)N(C)[C@@]3(C)CC[C@H]21`, the ED50 in data set [1] was 1.4 mg/kg. Besides, the Ki was 0.001 µM on Histamine H3 receptor [2] and 0.0033 µM at Histamine H3 receptor [3]. This compound displayed an IC50 in data set [5] of 7.7 µM.

`C[C@@H]1C[C@H]2[C@@H]3CCc4cc(OCCCN5CCC[C@H]5C)ccc4[C@H]3CC[C@]2(C)NC1=O`: the ED50 in [1] came to 0.86 mg/kg. Also, the Ki on Histamine H3 receptor [2] came to 0.0041 µM; on Histamine H3 receptor [3], 0.009 µM; in [4] it was 2.7 µM. Also, the midpoint of inhibition in data set [5], the IC50, lay at 14.5 µM.

For `C[C@@H]1CCCN1CCCOc1ccc2c(c1)CC[C@H]1C3=CCC(=O)N[C@@]3(C)CC[C@H]21`, the minimal effective dose with Mus musculus is 0.3 mg/kg. Also, in data set [8], the Kp at 49 h is 0.6. The median effective dose (ED50) in [1] was 0.12 mg/kg. For the same compound, at Histamine H3 receptor [3], the Ki turned out to be 0.0068 µM. The IC50 in [5] was found to be 18.7 µM. In addition, the bioavailability in data set [9] was 63.8%.

The values above are taken from ChEMBL document CHEMBL5528071, “Discovery of Novel Steroid-Based Histamine H3 Receptor Antagonists/Inverse Agonists” (J Med Chem, 2024).
